On to `Cn1c(Br)nc2c1C(=O)N1CCN=C1N2Cc1ccc(Cl)cc1`, for which the melting point – broadly, the temperature, or range, at which the solid turns liquid – is 206 to 207 °C.

`Cc1cn(C(C(=O)N(C)C)C2CCCCC2)nc1-c1ccccc1` (centres undefined) yielded a melting point of 102 to 104 °C.

Compound `CN1C(=O)CSC(c2cccc(Cl)c2)c2cc(C(N)(c3ccc(Cl)cc3)c3cncn3C)ccc21` (centres undefined) displayed a melting point of 218 °C.

Turning to `O=c1oc(-c2c(F)cccc2Cl)nn1-c1ccccc1C(F)(F)F`, the melting point lay within 109 to 110 °C.

Regarding `OCc1cn(-c2ccc(OC(F)(F)F)cc2)cn1`, the melting point was 105 to 106 °C.

Consider `COC(=O)c1cc(C(=O)OC)cc(-c2ccc(C=O)cc2)c1`, for which the melting point lay within 166 to 169 °C.

`CN(CCCN1C(=O)c2cccc3cc4ccccc4c(c23)C1=O)CCCN1C(=O)c2cccc3cc4ccccc4c(c23)C1=O` returned a melting point of 194 °C.

The compound `N#CCCNC(=O)c1cccc(-c2cccc3nn(Cc4ccc(F)c(F)c4)cc23)c1` displayed a melting point of 191 to 192 °C.

In the case of `Cc1c(F)c(N)c(Cl)c2c1c(=O)c(C(=O)O)cn2-c1cc(N)c(F)cc1F`, the melting point was greater than 280 °C.

In the case of `CC(NC(=O)C1C(CO)N(Cc2ccccc2)C(=O)N1Cc1ccccc1)c1ccc2ccccc2c1` (centres undefined), the melting point fell in the range of 170 to 175 °C.

`Cc1cc(C(=O)c2cc(C(F)(F)F)cc(C(F)(F)F)c2)ccc1N(C)C` gave a melting point of 145 to 147 °C.

`CCOC(=O)CN1C(=O)C(NC(=O)Cc2ccc(Cl)cc2)N=C(c2ccccc2)c2ccccc21` (centres undefined) showed a melting point of 205 to 207 °C.

`Cn1ncc2nn(-c3cc(C(F)(F)F)ccc3F)c(=O)c(Cl)c21` registered a melting point of 177 to 182 °C.

Regarding `CC(C)c1ccccc1N=C1NCCS1`, the melting point lay within 76 to 77 °C.

Take `CC(C)(C)C(=O)OC(COc1cccc2[nH]ncc12)CN1CCC(COc2ccccc2)CC1` (centres undefined): the melting point lay within 116 to 118 °C.

`CN(C)c1ccc(-c2cc3nccnc3[nH]2)cc1CCCO`: the melting point was in the range of 203 to 204 °C.

`CN1C2CCC1CC(c1n[nH]c3ccccc13)C2` (centres undefined) registered a melting point of 191 to 192 °C.

With `CC(=O)Nc1ccc(OCCCOc2ccc(Cl)c(Cl)c2)cc1`, the melting point was 135 to 137 °C.

The compound `Fc1cc(F)c2[nH]c(-c3ccccc3)c(CCN3CCCCC3)c2c1` registered a melting point of 185 to 187 °C.

For the compound `COc1cc(C(=O)NC2CCN(C(=O)CN(C)C)CC2)ccc1Nc1ncc2c(n1)N(C1CCCCC1)CC(F)(F)C(=O)N2C`, the melting point is 190 to 191 °C.

The compound `CC(=O)C1CCC2C3CC=C4C=CCCC4(C)C3CCC12C` (centres undefined) showed a melting point of 135 to 136 °C.

`COc1cc([N+](=O)[O-])c(C(OC(=O)C(Cl)(Cl)Cl)c2ccccc2)c([N+](=O)[O-])c1OC` (centres undefined) gave a melting point of 105 to 106 °C.

`O=C(O)COc1ccnc2ccccc12` returned a melting point of 274 to 276 °C.

In turn, `CCCCCS(=O)(=O)NCC(=O)O` registered a melting point of 87 to 90 °C.

In turn, `CCn1ncnc1COc1nc2c(nnn2-c2ccccc2)c2ccccc12` displayed a melting point of 192 to 195 °C.

In the case of `O=C1C=C(O)CC(c2ccccc2)N1` (centres undefined), the melting point fell in the range of 166 to 169 °C.

The compound `N#Cc1cc(-c2ccncn2)c[nH]c1=O` registered a melting point greater than 250 °C.

In turn, `CCc1nc2c(C)cc(C)nc2n1Cc1ccc(C2(C(=O)O)CCOCC2)s1` came in with a melting point of 214 to 215 °C.

For the compound `CC(=O)OC(c1nccs1)(c1nccs1)C(F)(F)F`, the melting point fell in the range of 82 to 84 °C.

For `CN1CC[C@@H](c2c(O)cc(O)c3c(=O)cc(-c4cccc(F)c4Br)oc23)[C@@H]1CO`, the melting point lay in the range of 237 to 239 °C.

`CNCCOc1ccc2ccc(NC(=O)c3ccc(OC)cc3)nc2n1` showed a melting point of 146 °C.

For `Nc1nonc1NCCCOc1cccc(CN2CCCCC2)c1`, the melting point lay within 87 to 88 °C.

Compound `O=c1[nH]c2nc(SCc3ccccc3)ncc2cc1Oc1ccc(F)cc1F` showed a melting point of 240 to 244 °C.

As for `O=C(Nc1nonc1-c1ccccc1)NC1CCC(C(F)(F)F)CC1` (centres undefined), the melting point is 212 °C.

The values above are taken from a melting point compilation (Tetko et al.; mined from patent text by program, amines drawn as free bases though some values may be those of a salt).
